Reference: the supplement of paper PMC10290057
Counter-ions that a name gives are not always drawn.

How the values were obtained:
HCT116 [1] = assay: efficacy (fitted maximal change in viability relative to DMSO control); higher = less cytotoxic (negative = loss of viability); details: 48 h
HCT116 [2] = assay: AC50 cell viability (CellTiter-Glo); higher = less potent; details: 48 h
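Wherever AC50 cell viability (CellTiter-Glo) is given: HCT116 colorectal carcinoma cells screened at five concentrations per compound, luminescent viability scaled between DMSO wells and empty wells on each plate, curves fitted per compound.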
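Wherever efficacy (fitted maximal change in viability relative to DMSO control) is given: Luminescence-based viability readout, five doses per compound, normalized against on-plate DMSO and empty-well controls, followed by dose-response curve fitting for every drug.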

Row | SMILES | efficacy (HCT116 [1]) [%] | AC50 cell viability (HCT116 [2]) [µM]
1 | OCCCNc1cc(-c2ccnc(Nc3cccc(Cl)c3)n2)ccn1 | -58.5 | 0.059
2 | C[N]1N=CC2=C1C=C(C(=C2)OC3=CC=C(NC(=O)\C4=C\C=C(\C)N(C4=O)C5=CC=C(F)C=C5)C=C3F)C6=C[NH]N=C6 [Merestinib] | -41.2 | 3.32
3 | CCOC(=O)N1CCN(/[N+]([O-])=N/Oc2ccc([N+](=O)[O-])cc2[N+](=O)[O-])CC1 | -71.8 | 18.6
4 | O=C1NC(=O)/C(=C/c2ccc3nccc(-c4ccncc4)c3c2)S1 [GSK-615] | -82.3 | 0.934
5 | O=C1c2ccccc2-c2n[nH]c3cccc1c23 | -63.8 | 13.2
6 | Cc1c(C(=O)NN2CCCCC2)nn(-c2ccc(Cl)cc2Cl)c1-c1ccc(Cl)cc1 [Rimonabant] | -93.4 | 23.5
7 | COc1cccc2c1C(=O)c1c(O)c3c(c(O)c1C2=O)C[C@@](O)(C(=O)CO)C[C@@H]3O[C@H]1C[C@H](N)[C@@H](O)[C@H](C)O1 [Epirubicin hydrochloride] | -77.8 | 0.372
8 | COc1ccc(Cc2nccc3cc(OC)c(OC)cc23)cc1OC [Papaverine hydrochloride] | -61.1 | 4.17
9 | N#CCNC(=O)c1ccc(-c2ccnc(Nc3ccc(N4CCOCC4)cc3)n2)cc1 [Momelotinib] | -74.3 | 3.72
10 | CC[C@]12\C=C/CN3CC[C@]4([C@@H](N(C)C5=C4C=C(C(=C5)OC)[C@]6(CC7C[C@H](CN(C7)CC8=C6[NH]C9=C8C=CC=C9)C(C)(F)F)C(=O)OC)[C@](O)([C@@H]1OC(C)=O)C(=O)OC)[C@H]23 (stereo partly specified) [Vinflunine (Tartrate)] | -67.8 | 0.209
11 | CCCCNc1ncc2c(-c3ccc(F)cc3)nn(C[C@H]3CC[C@H](N)CC3)c2n1 [UNC-569] | -83.5 | 7.23
12 | CC[C@@]1(O)C[C@H](O[C@H]2C[C@H](N(C)C)[C@H](O[C@H]3C[C@H](O)[C@H](O[C@H]4CCC(=O)[C@H](C)O4)[C@H](C)O3)[C@H](C)O2)c2c(cc3c(c2O)C(=O)c2c(O)cccc2C3=O)[C@H]1C(=O)OC [Aclarubicin] | -89.2 | 3.72
13 | Cn1cnc2c(F)c(Nc3ccc(Br)cc3Cl)c(C(=O)NOCCO)cc21 [Selumetinib] | -77 | 0.525
14 | Cc1cc(Cl)ccc1OCCCC(=O)NO [Droxinostat] | -57.1 | 20.9
15 | O=C1c2ccccc2-[n+]2ccc3c([nH]c4ccccc43)c21 [Fascaplysin] | -88.3 | 0.742
16 | COc1cc(C(=O)NC2CCN(C)CC2)ccc1Nc1ncc2c(n1)N(C1CCCC1)CCC(=O)N2C(C)C | -107 | 14.8
17 | CCC(=O)Nc1cccc(Oc2nc(Nc3ccc(N4CCN(C)CC4)cc3OC)ncc2Cl)c1 [WZ-4003] | -65.7 | 6.61
18 | Cc1cncc2cccc([S+](=O)([O-])N3CCCN(C(=O)CN)C[C@@H]3C)c12 [Glycyl-H-1152] | -35.8 | 5.9
19 | Cc1c(-c2ccc(O)cc2)n(Cc2ccc(OCCN3CCCCCC3)cc2)c2ccc(O)cc12 [Bazedoxifene] | -101 | 20.9
20 | C=CC(=O)Nc1cccc(Nc2nc(Nc3ccc(NC4CN(CCF)C4)cc3OC)ncc2C(F)(F)F)c1 [CNX-2006] | -105 | 10.5

Row | SMILES | efficacy (HCT116 [1]) [%] | AC50 cell viability (HCT116 [2]) [µM]
21 | c1cc(N[C@@H]2CCNC2)nc(-c2cnc3ccc(-c4cn[nH]c4)cn23)c1 | -59.7 | 7.42
22 | CC(C)[C@H](CO)Nc1nc(Nc2cccc(Cl)c2)c2ncn(C(C)C)c2n1 [Purvalanol A] | -110 | 13.2
23 | NC1=NC(=C(C#N)C(=N1)N)N[C@@H](C2CC2)\C3=N\C4=C(C(=CC=C4F)Cl)C(=O)N3C5=CC=CN=C5 [GS-9901] | -71 | 18.6
24 | Cc1ccc([S+](=O)([O-])Cc2nc(-c3ccc(C(=O)NCc4cccnc4)cc3)oc2C)cc1 | -90.9 | 0.0372
25 | CC(C)c1cc(C(=O)N2Cc3ccc(CN4CCN(C)CC4)cc3C2)c(O)cc1O [Onalespib] | -54.3 | 0.118
26 | CC1=N[NH]C=C1C2=CC\3=C(S2)C(=O)NC(=N3)\[C@@H]4CC5CCN4CC5 [TAK-931] | -65.2 | 2.63
27 | CCC(CC)C(c1ccc(Nc2nc3ccccc3s2)cc1)n1cncn1 (stereo not drawn) [Talarozole (R enantiomer)] | -96.4 | 20.9
28 | O=C(Cc1ccc(-c2ccc(OCCN3CCOCC3)cc2)cn1)NCc1ccccc1 [KX-01] | -59.6 | 0.0833
29 | OCCn1cc(-c2ccc3c(c2)CC/C3=N\O)c(-c2ccncc2)n1 | -55.7 | 4.68
30 | Cn1cnc(-c2cc3nccc(Oc4ccc(NC(=S)NC(=O)Cc5ccccc5)cc4F)c3s2)c1 [MGCD-265] | -59.3 | 16.6
31 | CC1=C(C)C\2=C(S1)[N]3C(=NN=C3C(CC(N)=O)\N=C2C4=CC=C(Cl)C=C4)C (stereo unspecified) [CPI-203] | -62.8 | 0.295
32 | Cn1ncc2cc(-c3cnc(N)c(Cl)c3N3CCC4(CCNC4=O)CC3)ccc21 | -46.1 | 16.6
33 | Nc1ncnc2c1c(-c1cccc(OCc3ccccc3)c1)cn2[C@H]1C[C@H](CN2CCCC2)C1 [ADW-742] | -84.3 | 16.6
34 | CC(C)Oc1cc(Nc2nc(N[C@@H](C)c3ccc(F)cn3)ncc2Cl)n[nH]1 [AZ-23] | -67.9 | 5.25
35 | CN1CCN(c2cccc(Nc3nc4c(-c5ccc([S+](C)(=O)[O-])cc5)cccn4n3)c2)CC1 | -121 | 16.6
36 | COC(=O)Nc1nc2cc(C(=O)c3ccc(F)cc3)ccc2[nH]1 [Flubendazole] | -54.4 | 0.468
37 | Cc1c(CN2CCN([S+](C)(=O)[O-])CC2)sc2c(N3CCOCC3)nc(-c3cnc(N)nc3)nc12 [GNE-477] | -57.8 | 0.59
38 | CCN(CC)CCCCNc1ncc2c(n1)N(C)C(=O)N(c1c(Cl)c(OC)cc(OC)c1Cl)C2 | -80.5 | 11.8
39 | O=C1[O][Pt]2([NH]C3CCCCC3[NH]2)[O]C1=O (stereo unspecified) [Oxaliplatin] | -42.2 | 9.11
40 | O=C(/C=C\n1cnc(-c2cc(C(F)(F)F)cc(C(F)(F)F)c2)n1)NNc1cnccn1 [Selinexor] | -93.1 | 0.372

Row | SMILES | efficacy (HCT116 [1]) [%] | AC50 cell viability (HCT116 [2]) [µM]
41 | C[C@]1(O)CC(C1)C2=NC(=C3[N]2C=CN=C3N)C4=CC5=C(C=C4)C=CC(=N5)C6=CC=CC=C6 (stereo unspecified) [Linsitinib] | -46.3 | 23.5
42 | CCC1CCCCN1C(=O)n1ncc(C(O)(c2ccccc2)c2ccccc2)n1 (stereo unspecified) [ML226] | -62.9 | 11.8
43 | CC(C)n1cnc2c(NCCc3ccc(O)cc3)nc(-c3csc4ccccc34)nc21 [StemRegenin 1] | -91.3 | 18.6
44 | Cc1nc(NC(=O)N2CCCC2C(N)=O)sc1-c1ccnc(C(C)(C)C(F)(F)F)c1 (stereo unspecified) [BYL-719] | -87.4 | 3.72
45 | CN1CCC(CC1)COC2=CN=C(N=C2)C3=CC(=CC=C3)CN4/N=C(\C=C/C4=O)C5=CC(=CC=C5)C#N | -30.6 | 7.42
46 | Nc1ncnc2c1c(-c1cccc(OCc3ccccc3)c1)cn2[C@H]1C[C@@H](CN2CCC2)C1 [NVP-AEW541] | -85.2 | 5.9
47 | COc1cc2c(Oc3ccc(NC(=O)C4(C(=O)Nc5ccc(F)cc5)CC4)cc3F)ccnc2cc1OCCCN1CCOCC1 [Foretinib] | -101 | 5.9
48 | CC[C@H](CC#N)OC(=O)N[C@@H](C)c1cccc(NC(=O)Nc2ccc(-c3cnco3)c(OC)c2)c1 [AVN944] | -72.8 | 0.332
49 | Cc1cccc(/C=N/Nc2cc(N3CCOCC3)nc(OCCc3ccccn3)n2)c1 [Apilimod] | -99.4 | 1.18
50 | O=C1CCc2ccc(OCCCCN3CCN(c4cccc(Cl)c4Cl)CC3)cc2N1 [Aripiprazole] | -93.8 | 18.6
51 | C#Cc1cccc(Nc2ncnc3cc(OCCOC)c(OCCO)cc23)c1 [OSI-420] | -76.6 | 6.61
52 | Cc1cc(I)ccc1Nc1c(C(=O)NOCC2CC2)cc(F)c(F)c1F | -95.1 | 4.68
53 | CC[C@@H](C)Nc1cc(C(=O)NC2CC3CCC(C2)N3c2ccc(C(=O)C3CC3)cn2)c(C)cc1C(N)=O (stereo partly specified) [XL-888] | -56.5 | 0.118
54 | COc1ccccc1N1CCN(CC(O)COc2cccc3ccccc23)CC1 (stereo unspecified) [Naftopidil] | -57.2 | 18.6
55 | CC(=O)Nc1nc(C)c(-c2ccc(Cl)c([S+](=O)([O-])NCCO)c2)s1 [PIK-93] | -85.9 | 8.33
56 | CC(C)[C@@H](C[S+](=O)([O-])C(C)C)N1C(=O)[C@@](C)(CC(=O)O)C[C@H](c2cccc(Cl)c2)[C@H]1c1ccc(Cl)cc1 [AMG-232] | -84.7 | 1.48
57 | CCc1ccc2nc(Nc3cc(Cc4ccccc4)nc(N[C@H]4CC[C@H](O)CC4)n3)sc2c1 | -65.1 | 18.6
58 | COc1ccc(-c2oc3ncnc(N)c3c2-c2ccc(NC(=O)Nc3cc(C(F)(F)F)ccc3F)cc2)cc1 | -70.5 | 4.68
